Laboratory results taken from patent US10065990B2, “Cyclic peptide compound, and preparation method, pharmaceutical composition and use thereof” (HANGZHOU GUANYU BIO-MEDICAL CO., LTD, priority 2013, dated 2018).
Like-named read-outs stand apart in the source and are kept apart here.

Key:
[1] = tested on: A549 (human lung cancer cells); assay: MTT cancer cell growth inhibition; assay type: cell-based; settings: Homo sapiens, A549, 72 h, MTT, 72 hours incubation, read-out: GI50 A54
Summary of the method: (§1)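 Three-day compound exposure (final 10^−5–10^−10 M, three replicate wells) of cells seeded at 1500 per well precedes a 4 h MTT incubation at 37° C. Viability is taken from 570 nm absorbance after DMSO solubilisation, and GI50 calculated from it.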

[2] = tested on: KBM5-T315I (human chronic myelogenous leukemia); assay: MTT cancer cell growth inhibition; assay type: cell-based; settings: Homo sapiens, 72 h, MTT, 72 hours incubation, KBM5-T315I cells; read-out: GI50 KBM5-T315I
Summary of the method: as §1

[3] = tested on: HCC827 (human non-small cell lung cancer cells); assay: MTT cancer cell growth inhibition; assay type: cell-based; settings: Homo sapiens, HCC827, 72 h, MTT, 72 hours incubation, HCC827 cells; read-out: GI50 HCC827
Summary of the method: as §1

[4] = tested on: Hela (human cervical cancer cells); assay: MTT cancer cell growth inhibition; assay type: cell-based; settings: Homo sapiens, HeLa, 72 h, MTT, 72 hours incubation, read-out: GI50 Hela
Summary of the method: as §1

[5] = tested on: Huh-7 (human hepatoma cells); assay: MTT cancer cell growth inhibition; assay type: cell-based; settings: Homo sapiens, Huh-7, 72 h, MTT, 72 hours incubation, Huh-7 cells; read-out: GI50 Huh-7
Summary of the method: as §1

[6] = tested on: MOLT-4 (human acute lymphoblastic leukemia cells); assay: MTT cancer cell growth inhibition; assay type: cell-based; settings: Homo sapiens, MOLT-4, 72 h, MTT, 72 hours incubation, read-out: GI50 Mol
Summary of the method: as §1

[7] = tested on: KBM-5 (human chronic myelogenous leukemia); assay: MTT cancer cell growth inhibition; assay type: cell-based; settings: Homo sapiens, KBM5, 72 h, MTT, 72 hours incubation, KBM-5 cells; read-out: GI50 KBM-5
Summary of the method: as §1

[8] = tested on: BGC-823 (human gastric cancer cells); assay: MTT cancer cell growth inhibition; assay type: cell-based; settings: Homo sapiens, BGC-823, 72 h, MTT, 72 hours incubation, read-out: GI50 BG
Summary of the method: as §1

[9] = tested on: N-87 (human gastric cancer cells); assay: MTT cancer cell growth inhibition; assay type: cell-based; settings: Homo sapiens, 72 h, MTT, 72 hours incubation, N-87 cells; read-out: GI50 N-87
Summary of the method: as §1

[10] = tested on: K562 (human leukemia cells); assay: MTT cancer cell growth inhibition; assay type: cell-based; settings: Homo sapiens, K562, 72 h, MTT, 72 hours incubation, K562 cells; read-out: GI50 K562
Summary of the method: as §1

[11] = tested on: lncap (prostate cancer cells); assay: MTT cancer cell growth inhibition; assay type: cell-based; settings: Homo sapiens, LNCaP, 72 h, MTT, 72 hours incubation, read-out: GI50 lnca
Summary of the method: as §1

[12] = tested on: H1975 (non-small cell lung adenocarcinoma); assay: MTT cancer cell growth inhibition; assay type: cell-based; settings: Homo sapiens, NCI-H1975, 72 h, MTT, 72 hours incubation, H1975 cells; read-out: GI50 H1975
Summary of the method: as §1

[13] = tested on: U937 (human leukemia cells); assay: MTT cancer cell growth inhibition; assay type: cell-based; settings: Homo sapiens, U-937, 72 h, MTT, 72 hours incubation, read-out: GI50 U93
Summary of the method: as §1

[14] = tested on: HT1080 (human fibrosarcoma cells); assay: MTT cancer cell growth inhibition; assay type: cell-based; settings: Homo sapiens, HT-1080, 72 h, MTT, 72 hours incubation, read-out: GI50 HT1
Summary of the method: as §1

[15] = tested on: DU145 (human prostate cancer cells); assay: MTT cancer cell growth inhibition; assay type: cell-based; settings: Homo sapiens, DU-145, 72 h, MTT, 72 hours incubation, read-out: GI50 Du1
Summary of the method: as §1

[16] = tested on: Bel-7402 (human hepatoma cells); assay: MTT cancer cell growth inhibition; assay type: cell-based; settings: Homo sapiens, Bel-7402, 72 h, MTT, 72 hours incubation, Bel-7402 cells; read-out: GI50 Bel-7402
Summary of the method: as §1

[17] = tested on: PANC-1 (Pac-1, human pancreatic cancer cells); assay: MTT cancer cell growth inhibition; assay type: cell-based; settings: Homo sapiens, PANC-1, 72 h, MTT, 72 hours incubation, read-out: GI50 PAN
Summary of the method: as §1

[18] = tested on: MDA-MB-231 (breast cancer cells); assay: MTT cancer cell growth inhibition; assay type: cell-based; settings: Homo sapiens, MDA-MB-231, 72 h, read-out: GI50 MDA-MB-231, MTT, 72 hours incubation, MDA-MB-231 cells
Summary of the method: as §1

[19] = tested on: MCF-7 (human breast cancer cells); assay: MTT cancer cell growth inhibition; assay type: cell-based; settings: Homo sapiens, MCF7, 72 h, 72 hours incubation, read-out: GI50 MCF
Summary of the method: as §1

[20] = tested on: SGC-7901 (human gastric cancer cells); assay: MTT cancer cell growth inhibition; assay type: cell-based; settings: Homo sapiens, SGC-7901, 72 h, MTT, 72 hours incubation, SGC-7901 cells; read-out: GI50 SGC-7901
Summary of the method: as §1

HDAC7 = molecular target: T1, HDAC7 (Homo sapiens, UniProt Q8WUI4); assay: HDAC biochemical activity measurement (fluorescent substrate deacetylation);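 further: fluorogenic deacetylation assay using acetyl-lysine substrate at 20 µM, enzyme and compound incubated 30 min at 37 °C, then developer added, fluorescence read at 360/460 nm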; settings: HDAC7; 37° C. 30 minutes
T1 sequence (Q8WUI4 1-952): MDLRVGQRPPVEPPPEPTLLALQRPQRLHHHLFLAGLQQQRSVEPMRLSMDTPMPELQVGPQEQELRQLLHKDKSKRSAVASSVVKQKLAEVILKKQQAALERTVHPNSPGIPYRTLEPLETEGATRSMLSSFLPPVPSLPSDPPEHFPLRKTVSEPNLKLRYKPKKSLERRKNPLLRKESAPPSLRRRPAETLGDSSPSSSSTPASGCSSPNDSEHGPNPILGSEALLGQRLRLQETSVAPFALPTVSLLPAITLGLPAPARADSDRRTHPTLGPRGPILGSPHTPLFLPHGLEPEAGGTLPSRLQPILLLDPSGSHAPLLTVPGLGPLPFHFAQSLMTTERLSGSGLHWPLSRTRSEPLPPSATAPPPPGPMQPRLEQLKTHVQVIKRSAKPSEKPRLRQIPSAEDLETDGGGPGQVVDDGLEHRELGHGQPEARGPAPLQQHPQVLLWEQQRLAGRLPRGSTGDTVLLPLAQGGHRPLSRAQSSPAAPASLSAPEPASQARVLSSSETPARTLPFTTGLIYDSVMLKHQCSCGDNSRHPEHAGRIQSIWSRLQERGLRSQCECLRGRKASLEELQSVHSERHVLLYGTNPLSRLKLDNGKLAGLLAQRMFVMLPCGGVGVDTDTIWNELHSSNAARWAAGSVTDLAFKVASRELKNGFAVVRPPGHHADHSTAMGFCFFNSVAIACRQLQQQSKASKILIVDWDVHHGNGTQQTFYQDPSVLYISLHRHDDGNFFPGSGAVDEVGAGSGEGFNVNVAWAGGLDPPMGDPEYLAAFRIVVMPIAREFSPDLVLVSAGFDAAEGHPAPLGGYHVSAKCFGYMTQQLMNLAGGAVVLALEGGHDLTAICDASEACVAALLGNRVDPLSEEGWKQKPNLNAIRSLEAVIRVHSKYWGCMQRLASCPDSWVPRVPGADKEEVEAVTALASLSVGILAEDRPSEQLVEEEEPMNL

For `C/C=C1\NC(=O)c2cccc(n2)CNC(=O)C[C@@H](/C=C/CCS)OC(=O)[C@H](CCCCNC(=O)OCC2c3ccccc3-c3ccccc32)NC1=O` [Compound 119], the GI50 [1] was 60 nM, the GI50 [2] was 28 nM and the GI50 [3] was 37 nM. For the same compound, the GI50 [4] was 90 nM, the GI50 [5] was 26 nM and the GI50 [6] was 90 nM. It also gave a GI50 [7] of 62 nM, a GI50 [8] of 40 nM and a GI50 [9] of 38 nM. It also gave a GI50 [10] of 36 nM, a GI50 [11] of 90 nM and a GI50 [12] of 38 nM. For the same compound, the GI50 [13] was 60 nM, the GI50 [14] was 90 nM and the GI50 [15] was 50 nM. It also gave a GI50 [16] of 37 nM, a GI50 [17] of 40 nM and a GI50 [18] of 27 nM. The GI50 [19] was 50 nM, the GI50 [20] was 34 nM and the “IC50 HDAC7” value (HDAC7) was “no activity”.

For `C/C=C1\NC(=O)c2nc(ccc2F)CNC(=O)C[C@@H](/C=C/CCSC(=O)CCC)OC(=O)[C@H](C(C)C)NC1=O` [Example 42], the GI50 [1] was 40 nM, the GI50 [2] was 53 nM and the GI50 [3] was 35 nM. For the same compound, the GI50 [4] was 50 nM, the GI50 [5] was 19 nM and the GI50 [6] was 80 nM. The GI50 [7] was 46 nM, the GI50 [8] was 30 nM and the GI50 [9] was 84 nM. It also gave a GI50 [10] of 57 nM, a GI50 [11] of 50 nM and a GI50 [12] of 35 nM. It also gave a GI50 [13] of 70 nM, a GI50 [14] of 40 nM and a GI50 [15] of 100 nM. For the same compound, the GI50 [16] was 55 nM, the GI50 [17] was 40 nM and the GI50 [18] was 35 nM. The GI50 [19] was 100 nM, the GI50 [20] was 32 nM and the “IC50 HDAC7” value (HDAC7) was “no activity”.

`C/C=C1\NC(=O)c2cccc(n2)CNC(=O)C[C@@H](/C=C/CCS)OC(=O)[C@H](Cc2cccc3ccccc23)NC1=O` [Compound 123] gave a GI50 [1] of 60 nM, a GI50 [2] of 67 nM and a GI50 [3] of 69 nM. For the same compound, the GI50 [4] was 90 nM, the GI50 [5] was 35 nM and the GI50 [6] was 90 nM. The GI50 [7] was 68 nM, the GI50 [8] was 40 nM and the GI50 [9] was 62 nM. The GI50 [10] was 36 nM, the GI50 [11] was 90 nM and the GI50 [12] was 21 nM. It also gave a GI50 [13] of 60 nM, a GI50 [14] of 90 nM and a GI50 [15] of 60 nM. The GI50 [16] was 27 nM, the GI50 [17] was 40 nM and the GI50 [18] was 39 nM. For the same compound, the GI50 [19] was 60 nM, the GI50 [20] was 51 nM and the “IC50 HDAC7” value (HDAC7) was “no activity”.

Work on `C/C=C1\NC(=O)c2cc(SC)cc(n2)CNC(=O)C[C@@H](/C=C/CCSC(=O)CCCCCCC)OC(=O)[C@H](C(C)C)NC1=O` [Compound 148] yielded a GI50 ([1]; A549 cells) of 20 nM, a GI50 [2] of 53 nM and a GI50 [3] of 16 nM. For the same compound, the GI50 ([4]; Hela cells) was 40 nM, the GI50 [5] was 64 nM and the GI50 ([6]; MOLT-4 cells) was 80 nM. The GI50 [7] was 35 nM, the GI50 ([8]; BGC-823 cells) was 40 nM and the GI50 [9] was 47 nM. For the same compound, the GI50 [10] was 62 nM, the GI50 ([11]; lncap cells) was 40 nM and the GI50 [12] was 39 nM. It also gave a GI50 ([13]; U937 cells) of 20 nM, a GI50 ([14]; HT1080 cells) of 80 nM and a GI50 ([15]; DU145 cells) of 50 nM. The GI50 [16] was 53 nM, the GI50 ([17]; PANC-1 cells) was 40 nM and the GI50 [18] was 51 nM. The GI50 ([19]; MCF-7 cells) was 50 nM, the GI50 [20] was 51 nM and the “IC50 HDAC7” value (HDAC7) was “no activity”.

With `C/C=C1\NC(=O)c2cc(F)cc(n2)CNC(=O)C[C@@H](/C=C/CCS)OC(=O)[C@H](CCCCN)NC1=O` [Compound 117] the GI50 [1] was 60 nM, the GI50 [2] was 59 nM and the GI50 [3] was 86 nM. The GI50 [4] was 80 nM, the GI50 [5] was 66 nM and the GI50 [6] was 20 nM. It also gave a GI50 [7] of 22 nM, a GI50 [8] of 70 nM and a GI50 [9] of 16 nM. For the same compound, the GI50 [10] was 35 nM, the GI50 [11] was 20 nM and the GI50 [12] was 72 nM. For the same compound, the GI50 [13] was 30 nM, the GI50 [14] was 40 nM and the GI50 [15] was 10 nM. For the same compound, the GI50 [16] was 34 nM, the GI50 [17] was 60 nM and the GI50 [18] was 58 nM. The GI50 [19] was 20 nM, the GI50 [20] was 33 nM and the “IC50 HDAC7” value (HDAC7) was “no activity”.

With `C/C=C1\NC(=O)c2cc(F)cc(n2)CNC(=O)C[C@@H](/C=C/CCS)OC(=O)[C@H](C(C)C)NC1=O` [Compound 107] the GI50 [1] was 40 nM, the GI50 [2] was 41 nM and the GI50 [3] was 13 nM. It also gave a GI50 [4] of 60 nM, a GI50 [5] of 24 nM and a GI50 [6] of 30 nM. It also gave a GI50 [7] of 72 nM, a GI50 [8] of 30 nM and a GI50 [9] of 35 nM. The GI50 [10] was 38 nM, the GI50 [11] was 30 nM and the GI50 [12] was 57 nM. The GI50 [13] was 30 nM, the GI50 [14] was 80 nM and the GI50 [15] was 30 nM. For the same compound, the GI50 [16] was 53 nM, the GI50 [17] was 80 nM and the GI50 [18] was 27 nM. The GI50 [19] was 30 nM, the GI50 [20] was 27 nM and the “IC50 HDAC7” value (HDAC7) was “no activity”.
